This is an account of results in patent US20100311656A1 (priority 2003, published 2010).

For one data set, the system named is SARS-CoV (Urbani). It is filed as in vivo, mice.
For data set [1] the following is noted: mouse, in vivo.
For data set [2] the following is noted: 0.2 mg/kg or 2 mg/kg s.c.; no toxicity controls included; cited from earlier work.
The conditions of data set [3]: subcutaneously injected; cited from earlier work.
For data set [4] the following is noted: cited from earlier work.

Some results are limits rather than exact numbers.

For “Ac-SDAAVDTSSEITTKDLKEKKEVVEEAEN-OH [thymosin alpha-1]”, in the data set with SARS-CoV (Urbani) (mouse, in vivo), the “Effect on virus lung titers” value is “significantly reduced virus lung titers”, the “Reduction of virus lung titers” value is on record as “about one”, the “Reduction of virus titers” value is recorded as “approximately 0.5 log10 unit” and the “Virus titer reductions (range over regimens)” value is 0.5-1.0 log10 units. The Tolerability of treatments entry in data set [1] is on record as “very well tolerated”. Moreover, the “Tolerability of the doses used (previously shown)” value in data set [2] is listed as “well tolerated”. For the same substance, in data set [3], the Plasma half-life result is “about two”. The “Dose found to be safe for humans” value in data set [4] is recorded as ≤ 16 mg/kg body weight/day.

Poly-ICLC: in the data set with SARS-CoV (Urbani) (50 μg/mouse i.n., positive control, P<0.01), the “Inhibition of lung virus titers” value is reported as ~3 log 10 units. Also, the “Virus Titer (Log10 CCID50/g)” value in the data set with SARS-CoV (Urbani) (lung, day 3 after infection, 50 μg/mouse i.n., -24 h, +12 h, mean ± SD, P < 0.01 vs buffer) is listed as 2.9 ± 0.1 Log10 CCID50/g. Besides, the “Mean Body Weight Change” value in data set [1] worked out at 0.0 g.
